Measured values as given in PubChem BioAssay (NCI).
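The compound was tested at five concentrations on cells cultured in 96-well plates, with a 48-hour exposure period. Here, GI50 denotes the concentration required for 50% inhibition of growth. At the TGI there is no net growth.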

Tests used:
Assay in all cases: NCI anticancer screen, dose series, 48 h
SK-MEL-5 melanoma = system: SK-MEL-5 melanoma
HOP-92 NSCLC = system: HOP-92 NSCLC
SK-OV-3 ovarian = system: SK-OV-3 ovarian
SF-295 CNS = system: SF-295 CNS
HL-60(TB) leukemia = system: HL-60(TB) leukemia
NCI-H460 lung = system: NCI-H460 lung
RXF 393 renal = system: RXF 393 renal
SK-MEL-28 melanoma = system: SK-MEL-28 melanoma
HCT-116 colon = system: HCT-116 colon
U251 CNS = system: U251 CNS

Row | SMILES | GI50 (SK-MEL-5 melanoma) [µM] | TGI (SK-MEL-5 melanoma) [µM] | GI50 (HOP-92 NSCLC) [µM] | TGI (HOP-92 NSCLC) [µM] | GI50 (SK-OV-3 ovarian) [µM] | TGI (SK-OV-3 ovarian) [µM] | GI50 (SF-295 CNS) [µM] | TGI (SF-295 CNS) [µM] | GI50 (HL-60(TB) leukemia) [µM] | TGI (HL-60(TB) leukemia) [µM] | GI50 (NCI-H460 lung) [µM] | TGI (NCI-H460 lung) [µM] | GI50 (RXF 393 renal) [µM] | TGI (RXF 393 renal) [µM] | GI50 (SK-MEL-28 melanoma) [µM] | TGI (SK-MEL-28 melanoma) [µM] | GI50 (HCT-116 colon) [µM] | TGI (HCT-116 colon) [µM] | GI50 (U251 CNS) [µM] | TGI (U251 CNS) [µM]
1 | CCC(C(=O)[O-])C(=O)[O-].CCC(C(=O)[O-])C(=O)[O-].N.N.NCCCCCCN.[Pt+4].[Pt+4] | 3.35 | 9.46 | 1.24 | 3.87 | 10.3 | 18.3 | 23.2 | 50 | 1.68 | 4.63 | 7.99 | 18.7 | 4.49 | 10.1 | 6.58 | 14.6 | 5.59 | 14 | 8.8 | 16.5
2 | O=C(NCCCCCCCCNC(=O)c1cccc2ccccc12)c1cccc2ccccc12 |  | > 100 |  | 20.4 |  | 41.6 |  | > 56.1 |  | > 100 |  | > 100 |  | 7.74 |  | > 94.4 |  | > 83.4 |  | 45.6
3 | C#Cc1cccc(Nc2nc3ccc([N+](=O)[O-])cc3nc2Nc2cccc(C#C)c2)c1 | 0.181 | 0.349 | 0.191 | 0.704 | 0.257 | 0.862 | 0.172 | 0.416 | 0.299 | 0.788 | 0.209 | 0.899 | 0.227 | 0.618 | 0.354 | 1.17 | 0.214 | 0.715 | 0.18 | 0.482
4 | CS(=O)(=O)CCNCc1ccc(-c2ccc3ncnc(Nc4ccc(OCc5ccccc5)c(Cl)c4)c3c2)o1 | 2.98 | 6.08 | 3.06 | 11.3 | 0.0416 | > 8.58 | 4.94 | 12.1 | 5.2 | 11.8 | 6.07 | > 17.8 | 1.61 | 6.33 | 3.85 | 7.49 | 4.53 | 9.54 | 5.02 | > 15.8
5 | COc1ccc(-c2csc(-c3cc(Cl)cc(Cl)c3Cl)n2)cc1 | 32.2 | > 100 | 27.6 | > 100 | 96.8 | > 100 | 57.8 | > 100 | 78.3 | > 100 | 46.5 | > 100 | 46.4 | > 100 | > 100 | > 100 | > 100 | > 100 | 60.2 | > 100
6 | O=C([O-])c1ccc(C(=O)[O-])cc1.O=C([O-])c1ccc(C(=O)[O-])cc1.[Mo+2].[Mo+2] | > 100 | > 100 | 99.8 | > 100 | > 100 | > 100 | > 100 | > 100 | > 100 | > 100 | > 100 | > 100 | > 100 | > 100 | > 100 | > 100 | > 100 | > 100 | > 100 | > 100
